Data taken from patent publication US9290451B2 (Hoffmann-La Roche Inc., priority 2011, dated 2016).
Like-named read-outs stand apart in the source and are kept apart here.

Tests used:
human CB2 receptors = human CB2 receptors (Homo sapiens (Human), UniProt P34972); test: cAMP assay, CHO cells expressing human CB2 receptors; format: cell-based
Description: (§1) CHO cells expressing human CB1 or CB2 receptors are seeded 17-24 hours prior to the experiment 50.000 cells per well in a black 96 well plate with flat clear bottom (Corning Costar #3904) in DMEM (Invitrogen No. 31331), 1×HT supplement, with 10% fetal calf serum and incubated at 5% CO2 and 37° C. in a humidified incubator. The growth medium was exchanged with Krebs Ringer Bicarbonate buffer with 1 mM IBMX and incubated at 30° C. for 30 min Compounds were added to a final assay volume of 100 μl and incubated for 30 min at 30° C. Using the cAMP-Nano-TRF detection kit the assay (Roche Diagnostics) was stopped by the addition of 50 μl lysis reagent (Tris, NaCl, 1.5% Triton X100, 2.5% NP40, 10% NaN3) and 50 μl detection solutions (20 μM mAb Alexa700-cAMP 1:1, and 48 μM Ruthenium-2-AHA-cAMP) and shaken for 2 h at room temperature. The time-resolved energy transfer is measured by a TRF reader (Evotec Technologies GmbH), equipped with a ND:YAG laser as excitation source. The plate is measured twice with the excitation at 355 nm and at the emission with a delay of 100 ns and a gate of 100 ns, total exposure time 10 s at 730 (bandwidth 30 nm) or 645 nm (bandwidth 75 nm), respectively. The FRET signal is calculated as follows: FRET=T730-Alexa730-P(T645-B645) with P═Ru730-B730/Ru645-B645, where T730 is the test well measured at […], T645 is the test well measured at 645 nm, B730 and B645 are the buffer controls at 730 nm and 645 nm, respectively. cAMP content is determined from the function of a standard curve spanning from 10 μM to 0.13 nM cAMP.
(§2) EC50 values were determined using Activity Base analysis (ID Business Solution, Limited). The EC50 values for a wide range of cannabinoid agonists generated from this assay for reference compounds were in agreement with the values published in the scientific literature.

human CB1 receptors = human CB1 receptors (Homo sapiens (Human), UniProt P21554); test: cAMP assay, CHO cells expressing human CB1 receptors; format: cell-based; conditions: CHO cells expressing human CB1, cAMP; read-out: human CB1 EC50
Sequence of human CB1 receptors (P21554 whole entry): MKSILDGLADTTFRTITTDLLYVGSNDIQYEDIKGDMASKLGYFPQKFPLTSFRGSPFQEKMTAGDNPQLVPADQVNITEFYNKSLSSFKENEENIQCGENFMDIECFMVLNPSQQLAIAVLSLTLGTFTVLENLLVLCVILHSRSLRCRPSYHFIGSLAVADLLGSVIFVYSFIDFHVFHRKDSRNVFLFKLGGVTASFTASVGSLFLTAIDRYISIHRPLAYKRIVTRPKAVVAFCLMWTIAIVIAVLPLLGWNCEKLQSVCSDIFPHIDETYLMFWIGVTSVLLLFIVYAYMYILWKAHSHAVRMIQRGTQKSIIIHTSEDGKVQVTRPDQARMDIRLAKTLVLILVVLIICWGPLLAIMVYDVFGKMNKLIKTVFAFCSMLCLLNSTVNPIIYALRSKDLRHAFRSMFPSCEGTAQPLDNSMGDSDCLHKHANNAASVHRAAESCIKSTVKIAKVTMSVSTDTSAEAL
Description: as §1, §2

[1] = CHO cells expressing human CB2, cAMP, read-out: human CB2 EC50

Sequence of human CB2 receptors (P34972 whole entry): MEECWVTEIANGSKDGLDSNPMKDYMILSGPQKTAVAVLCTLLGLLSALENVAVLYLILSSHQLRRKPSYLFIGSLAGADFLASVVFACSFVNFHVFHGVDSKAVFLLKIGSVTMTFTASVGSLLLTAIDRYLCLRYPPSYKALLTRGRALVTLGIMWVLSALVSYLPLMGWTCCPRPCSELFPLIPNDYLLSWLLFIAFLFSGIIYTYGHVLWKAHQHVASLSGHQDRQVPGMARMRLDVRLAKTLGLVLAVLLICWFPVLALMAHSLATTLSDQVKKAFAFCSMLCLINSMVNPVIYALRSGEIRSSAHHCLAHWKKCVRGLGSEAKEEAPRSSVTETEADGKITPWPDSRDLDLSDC

| SMILES | EC50 (human CB2 receptors; [1]) [nM] | EC50 (human CB1 receptors) [nM] | EC50 (human CB2 receptors) [nM] |
| --- | --- | --- | --- |
| O=C(c1ccc(N2CCCC2)c(OCC2CC2)n1)N1CC2(COC2)C1 [Example 31, (6-Cyclopropylmethoxy-5-pyrrolidin-1-yl-pyridin-2-yl)-(2-oxa-6-aza-spiro[3.3]hept-6-yl)-methanone] | 423 | > 10000 |  |
| NC(=O)[C@@H](NC(=O)c1ccc(C2CC2)c(OCC2CC2)n1)C1CC1 [Example 374, 5-Cyclopropyl-6-cyclopropylmethoxy-pyridine-2-carboxylic acid ((+)-carbamoyl-cyclopropyl-methyl)-amide] | 28.1 | > 10000 |  |
| CCC(CC)(NC(=O)c1ccc(Cl)c(-c2cccc(Cl)c2)n1)C(=O)NC [Example 91, 5-Chloro-6-(3-chloro-phenyl)-pyridine-2-carboxylic acid (1-ethyl-1-methylcarbamoyl-propyl)-amide] | 632 | > 10000 |  |
| CCOC(=O)C(CC)(CC)NC(=O)c1ccc(N2CCCC2)c(OCC2CC2)n1 [Example 289, 2-[(6-Cyclopropylmethoxy-5-pyrrolidin-1-yl-pyridine-2-carbonyl)-amino]-2-ethyl-butyric acid ethyl ester] | 1.4 | 234 |  |
| CNC(=O)[C@H](CC(C)(C)C)NC(=O)c1ccc(C(F)(F)F)c(OCC2CC2)n1 [Example 228, 6-Cyclopropylmethoxy-5-trifluoromethyl-pyridine-2-carboxylic acid ((S)-3,3-dimethyl-1-methylcarbamoyl-butyl)-amide] | 16.8 | > 10000 |  |
| O=C(NN1CCCOC1=O)c1ccc(C2CC2)c(OCC2CC2)n1 [Example 371, 5-Cyclopropyl-6-cyclopropylmethoxy-pyridine-2-carboxylic acid (2-oxo-[1,3]oxazinan-3-yl)-amide] | 436 | > 10000 |  |
| NC(=O)[C@H](CC1CC1)NC(=O)c1ccc(C(F)(F)F)c(OCC2CC2)n1 [Example 113, 6-Cyclopropylmethoxy-5-trifluoromethyl-pyridine-2-carboxylic acid ((S)-1-carbamoyl-2-cyclopropyl-ethyl)-amide] | 200 | > 10000 |  |
| CCOC(=O)C(CC)(CC)NC(=O)c1ccc(C(F)(F)F)c(OCC2CCCO2)n1 (centres unmarked) [Example 254, 2-Ethyl-2-{[6-(tetrahydro-furan-2-ylmethoxy)-5-trifluoromethyl-pyridine-2-carbonyl]-amino}-butyric acid ethyl ester] | 2.3 | 518 |  |
| COC(=O)C(C)(C)NC(=O)c1cccc(-c2ccccc2Cl)n1 [Example 2, Methyl 2-(6-(2-chlorophenyl)picolinamido)-2-methylpropanoate] | 57.7 |  |  |
| COC(=O)C(C)(C)NC(=O)c1cccc(-c2cccc(Cl)c2)n1 [Example 1, Methyl 2-(6-(3-chlorophenyl)picolinamido)-2-methylpropanoate] | 68.5 |  |  |
| COC(=O)C(C)(C)NC(=O)c1cccc(C2CCCCC2)n1 [Example 7, 2-[(6-Cyclohexyl-pyridine-2-carbonyl)-amino]-2-methyl-propionic acid methyl ester] | 32.1 |  |  |
| O=C(N[C@@H](CC1CC1)C(=O)NN1CCC(O)C1)c1ccc(C2CC2)c(OCC2CC2)n1 (single isomer, unassigned; (+)) [Example 379] |  |  | 26.4 |
| COC(=O)C(C)(C)NC(=O)c1ccc(C)c(Nc2ccc(Cl)cc2Cl)n1 [Example 6, Methyl 2-(6-(2,4-dichlorophenylamino)-5-methylpicolinamido)-2-methylpropanoate] | 376 |  |  |
| COC(=O)C(C)(C)NC(=O)c1ccc(C2CC2)c(Nc2ccc(Cl)cc2Cl)n1 [Example 5, Methyl 2-(5-cyclopropyl-6-(2,4-dichlorophenylamino)picolinamido)-2-methylpropanoate] | 434 |  |  |
| COC(=O)C(C)(C)NC(=O)c1ccc(C)c(OCC(F)(F)F)n1 [Example 4, Methyl 2-methyl-2-(5-methyl-6-(2,2,2-trifluoroethoxy)picolinamido)propanoate] | 77.2 |  |  |
